{"source": "patent US4329341A", "about": "“5-Phenyl-1,3,4,5-tetrahydro-2H-1,4-benzodiazepin-2-ones, and pharmaceutical compositions containing them” (Richter Gedeon Vegyeszeti Gyar Rt, priority 1980, dated 1982)", "key": {"[1]": {"tested_on": "CFLP male mice", "experiment": "Potentiation of activity of sodium-barbital (measurement of the sedative activity)", "assay_type": "in vivo", "details": "for Number of the test animals fallen asleep in % of the control: 20 mg./kg. i.p., after one hour Na-barbital 100 mg./kg. i.p.", "method": "Determination of the potentiation of activity of sodium-barbital (measurement of the sedative activity)\nIn the tests carried out [see S. Goldschmidt and R. Wohr: Z. physiol. Chem. 308, 9 /1957/; D. V. Parker: J. Pharm. Pharmac. 27, 729 /1975/] the test animals were pretreated with a 20 mg./kg. i.p. dose of the test compounds of the general formula (I) and after one hour were administered a 100 mg./kg. i.p. dose of Na-barbital.\n(§1) As test animals CFLP male mice weighing […]. were used."}, "[2]": {"tested_on": "NADPH-depending multifunctional oxydase enzyme system of the liver", "experiment": "Hexobarbital-induced sleeping time (measurement of enzyme inducing activity)", "assay_type": "in vivo, CFLP male mice", "details": "for Hexobarbital-sleeping time, 1-hour pretreatment, average ± SE / Hexobarbital-sleeping time, 1-hour pretreatment, Δ% (percentage change related to the control) / Hexobarbital-sleeping time, 24-hour pretreatment, Δ% (percentage change related to the control) / Hexobarbital-sleeping time, 24-hour pretreatment, average ± SE: 40 mg./kg. p.o., hexobarbital 60 mg./kg. i.v.; for Hexobarbital-sleeping time, 1-hour pretreatment, average ± SE: control 35 ± 2.38; for Hexobarbital-sleeping time, 1-hour pretreatment, Δ% (percentage change related to the control) / Hexobarbital-sleeping time, 24-hour pretreatment, average ± SE: x: p < 0.001 compared to the control; for Hexobarbital-sleeping time, 24-hour pretreatment, average ± SE: control 34 ± 2.60", "source_text": "The biological activity and duration of activity of different endogenic and exogenic compounds are greatly influenced by the activity of the NADPH- (nicotinic acid amide-adenine-dinucleotide phosphate-) depending multifunctional oxydase enzyme system of the liver. There are numerous compounds known in the art, showing various pharmacological activities, which are capable of increasing or inducing the activity of the metabolising, multifunctional oxydase enzyme system of the liver [see e.g. Sher, S.P.: Toxicol. appl. Pharmacol. 18, 780 /1971/; G. J. Mannering: in A. Burger's Selected Pharmacological Testing Methods, 51-119 S., Marcel Dekker Inc., New York /1968/]. […] Therefore phenobarbital can successfully be used in the treatment of Czigler-Najjar and Cilbert syndroms and neonatal hyperbilirubinemia, though due to its hypnotic-sedative effect the inducing activity of this compound is not optimal [Vessel and J. E. Page: J. Clin. Invest. 48, 2202 /1969/; J. T. Wilson: Pediatrics 43, 424 /1969/].\nFor screening the enzyme inducing activity the change in the hexobarbital-induced sleeping time is conventionally measured. The inducing activity of the compounds of the general formula (I) according to the invention was compared to the corresponding activity of phenobarbital and to their own sedative effect, using the following test methods.\nDetermination of the sleeping time induced by hexobarbital (measurement of enzyme inducing activity)\nAfter (a) one hour and (b) after 24-hour pretreatment with a 40 mg./kg. p.o. dose of the test compounds, the groups of test animals were administered a 60 mg./kg. i.v. dose of hexobarbital.\nas §1"}, "[3]": {"tested_on": "metabolysing enzyme system of the liver", "details": "diseases caused by defectiveness of the metabolysing enzyme system of the liver; cited from earlier work"}, "[4]": {"experiment": "Acute toxicity (p.o.)", "parameters": "species or system CFLP male mice", "details": "mouse, in vivo, po, 14 days", "method": "To the test animals 250 and 500 mg./kg. doses, resp. of the test compounds were administered orally and the number of the dead animals was registered for 14 days.\nas §1"}}}
{"smiles": "C[C@H]1C(=O)N(C)c2ccc(Cl)cc2[C@H](c2ccccc2)N1C(N)=O", "note": "[Example 3, 3S,5S-1,3-Dimethyl-4-carbamoyl-5-phenyl-7-chloro-1,3,4,5-tetrahydro-2H-1,4-benzodiazepin-2-one]", "values": [{"measurement": "Number of the test animals fallen asleep in % of the control", "setting": "[1]", "value": 0, "unit": "%"}, {"measurement": "Hexobarbital-sleeping time, 1-hour pretreatment, average ± SE", "setting": "[2]; 1-hour pretreatment", "value": "43.3 ± 4.18", "unit": "min"}, {"measurement": "Hexobarbital-sleeping time, 1-hour pretreatment, Δ% (percentage change related to the control)", "setting": "[2]; 1-hour pretreatment", "value": "+23%"}, {"measurement": "Hexobarbital-sleeping time, 24-hour pretreatment, Δ% (percentage change related to the control)", "setting": "[2]", "value": -65, "unit": "%"}, {"measurement": "Hexobarbital-sleeping time, 24-hour pretreatment, average ± SE", "setting": "[2]", "value": "12.0 ± 0.83", "unit": "min"}, {"measurement": "Sleeping time 1 hour after administration, in words", "setting": "[2]; 1-hour pretreatment", "value": "most favourable properties"}]}
{"smiles": "CCC1(CC)C(=O)NC(=O)NC1=O", "note": "[Na-barbital, sodium-barbital, reference compound]", "values": [{"measurement": "Narcotic effect of Na-barbital alone", "setting": "[1]; 100 mg./kg. i.p. Na-barbital", "value": "no narcotic effect"}]}
{"smiles": "C[C@H]1N[C@H](c2ccccc2)c2cc(Cl)ccc2N(C)C1=O", "note": "[Example 2, 3R,5R-1,3-Dimethyl-5-phenyl-7-chloro-1,3,4,5-tetrahydro-2H-1,4-benzodiazepin-2-one]", "values": [{"measurement": "Number of the test animals fallen asleep in % of the control", "setting": "[1]", "value": ".phi."}, {"measurement": "Hexobarbital-sleeping time, 1-hour pretreatment, average ± SE", "setting": "[2]; 1-hour pretreatment", "value": "61.2 ± 5.21", "unit": "min"}, {"measurement": "Hexobarbital-sleeping time, 1-hour pretreatment, Δ% (percentage change related to the control)", "setting": "[2]; 1-hour pretreatment", "value": "+73%"}, {"measurement": "Hexobarbital-sleeping time, 24-hour pretreatment, Δ% (percentage change related to the control)", "setting": "[2]", "value": -61, "unit": "%"}, {"measurement": "Hexobarbital-sleeping time, 24-hour pretreatment, average ± SE", "setting": "[2]", "value": "13.3 ± 0.54", "unit": "min"}]}
{"smiles": "C[C@@H]1N[C@@H](c2ccccc2)c2cc(Cl)ccc2N(C)C1=O", "note": "[Example 1, 3S,5S-1,3-Dimethyl-5-phenyl-7-chloro-1,3,4,5-tetrahydro-2H-1,4-benzodiazepin-2-one]", "values": [{"measurement": "Number of the test animals fallen asleep in % of the control", "setting": "[1]", "value": 50, "unit": "%"}, {"measurement": "Hexobarbital-sleeping time, 1-hour pretreatment, average ± SE", "setting": "[2]; 1-hour pretreatment", "value": "67.2 ± 7.01", "unit": "min"}, {"measurement": "Hexobarbital-sleeping time, 1-hour pretreatment, Δ% (percentage change related to the control)", "setting": "[2]; 1-hour pretreatment", "value": "+91%"}, {"measurement": "Hexobarbital-sleeping time, 24-hour pretreatment, Δ% (percentage change related to the control)", "setting": "[2]", "value": -43, "unit": "%"}, {"measurement": "Hexobarbital-sleeping time, 24-hour pretreatment, average ± SE", "setting": "[2]", "value": "19.5 ± 1.84", "unit": "min"}]}
{"smiles": "CCC1(c2ccccc2)C(=O)NC(=O)NC1=O", "note": "[Phenobarbital, reference compound]", "values": [{"measurement": "Number of the test animals fallen asleep in % of the control", "setting": "[1]", "value": 60, "unit": "%"}, {"measurement": "Inducing activity in human diseases, in words", "setting": "[3]", "value": "shows an inducing activity in the case of human diseases"}, {"measurement": "LD50 at 336 h", "setting": "[4]", "value": 191, "unit": "mg/kg"}, {"measurement": "Hexobarbital-sleeping time, 1-hour pretreatment, average ± SE", "setting": "[2]; 1-hour pretreatment", "value": "86.2 ± 7.51", "unit": "min"}, {"measurement": "Hexobarbital-sleeping time, 1-hour pretreatment, Δ% (percentage change related to the control)", "setting": "[2]; 1-hour pretreatment", "value": "+145%"}, {"measurement": "Hexobarbital-sleeping time, 24-hour pretreatment, Δ% (percentage change related to the control)", "setting": "[2]", "value": -69, "unit": "%"}, {"measurement": "Hexobarbital-sleeping time, 24-hour pretreatment, average ± SE", "setting": "[2]", "value": "11.2 ± 0.35", "unit": "min"}, {"measurement": "Increase of sleeping time relative to its original value", "setting": "[2]; 1-hour pretreatment", "value": "~3", "unit": "times"}]}
{"smiles": "C[C@@H]1C(=O)N(C)c2ccc(Cl)cc2[C@@H](c2ccccc2)N1C(N)=O", "note": "[Example 4, 3R,5R-1,3-Dimethyl-4-carbamoyl-5-phenyl-7-chloro-1,3,4,5-tetrahydro-2H-1,4-benzodiazepin-2-one]", "values": [{"measurement": "Number of the test animals fallen asleep in % of the control", "setting": "[1]", "value": ".phi."}, {"measurement": "Hexobarbital-sleeping time, 1-hour pretreatment, average ± SE", "setting": "[2]; 1-hour pretreatment", "value": "43.3 ± 5.01", "unit": "min"}, {"measurement": "Hexobarbital-sleeping time, 1-hour pretreatment, Δ% (percentage change related to the control)", "setting": "[2]; 1-hour pretreatment", "value": "+23%"}, {"measurement": "Hexobarbital-sleeping time, 24-hour pretreatment, Δ% (percentage change related to the control)", "setting": "[2]", "value": -71, "unit": "%"}, {"measurement": "Hexobarbital-sleeping time, 24-hour pretreatment, average ± SE", "setting": "[2]", "value": "9.9 ± 0.62", "unit": "min"}, {"measurement": "Sleeping time 1 hour after administration, in words", "setting": "[2]; 1-hour pretreatment", "value": "most favourable properties"}]}
{"smiles": "C[C@@H]1C(=O)N(C)c2ccc(Cl)cc2[C@@H](c2ccccc2)N1C(N)=O", "note": "(relative stereo) [Example 5, 3RS,5RS-1,3-Dimethyl-4-carbamoyl-5-phenyl-7-chloro-1,3,4,5-tetrahydro-2H-1,4-benzodiazepin-2-one]", "values": [{"measurement": "Number of the test animals fallen asleep in % of the control", "setting": "[1]", "value": 20, "unit": "%"}, {"measurement": "Hexobarbital-sleeping time, 1-hour pretreatment, average ± SE", "setting": "[2]; 1-hour pretreatment", "value": "37.3 ± 3.01", "unit": "min"}, {"measurement": "Hexobarbital-sleeping time, 1-hour pretreatment, Δ% (percentage change related to the control)", "setting": "[2]; 1-hour pretreatment", "value": "+6%"}, {"measurement": "Hexobarbital-sleeping time, 24-hour pretreatment, Δ% (percentage change related to the control)", "setting": "[2]", "value": -73, "unit": "%"}, {"measurement": "Hexobarbital-sleeping time, 24-hour pretreatment, average ± SE", "setting": "[2]", "value": "9 ± 0.43", "unit": "min"}, {"measurement": "Sleeping time 1 hour after administration, in words", "setting": "[2]; 1-hour pretreatment", "value": "most favourable properties"}]}
